The target of test [1] is NADH:ubiquinone oxidoreductase (complex I), BH‐SMP (Bos taurus, UniProt P03887+P17694+P42026). It is filed as biochemical, bovine. Particulars: for IC50: read-out: IC50 Complex I BH‐SMP. The procedure: (§1) NADH:ubiquinone oxidoreductase (complex I) and succinate:ubiquinone oxidoreductase (complex II) activities were determined in 96 well‐plates using DCPIP as the electron acceptor. In each well, 200 μl of premix containing buffer (250 mM sucrose, 20 mM triethanolamine, and 1 mM EDTA, pH 7.4), DCPIP (60 μM), BSA (3.5 mg/ml for complex I and 1 mg/ml for complex II), idebenone (50 μM), and LtP‐Mit (complex I 0.17 μg/ml protein and complex II: 51 μg/ml protein) or BH‐SMP (complexes I and II: 8 μg/ml protein) were added. In addition, in the first wells, 97 μl of premix and 3 μl of EO compounds were added. Then six serial 1:3 dilutions were carried out transferring 100 μl in each step. The reaction was started by adding 50 μl of start‐mix per well, giving final concentrations of KCN (1 mM), for complex I:NADH (300 μM) or complex II:succinate (4 mM). After start of the reaction, images of the plates were recorded with a Canon EOS 300D camera (PLReader software, red–green channel) each 10 min for LtP‐Mit and 3 min for BH‐SMP (20 absorbance measurements). For each EO compound, percentage of inhibition was obtained with respect to controls (set to 100%) treated with maximum volume of vehicle (DMSO) introduced by test compound stocks.

For test [2], the target named is T1, succinate:ubiquinone oxidoreductase (complex II), BH‐SMP (Bos taurus, UniProt P31039+P35720+Q3T189+Q95123).
T1 construct: from tissue; host or cells: bovine heart submitochondrial particles (BH-SMP)
T1 sequence (P31039 45-665 limits assumed): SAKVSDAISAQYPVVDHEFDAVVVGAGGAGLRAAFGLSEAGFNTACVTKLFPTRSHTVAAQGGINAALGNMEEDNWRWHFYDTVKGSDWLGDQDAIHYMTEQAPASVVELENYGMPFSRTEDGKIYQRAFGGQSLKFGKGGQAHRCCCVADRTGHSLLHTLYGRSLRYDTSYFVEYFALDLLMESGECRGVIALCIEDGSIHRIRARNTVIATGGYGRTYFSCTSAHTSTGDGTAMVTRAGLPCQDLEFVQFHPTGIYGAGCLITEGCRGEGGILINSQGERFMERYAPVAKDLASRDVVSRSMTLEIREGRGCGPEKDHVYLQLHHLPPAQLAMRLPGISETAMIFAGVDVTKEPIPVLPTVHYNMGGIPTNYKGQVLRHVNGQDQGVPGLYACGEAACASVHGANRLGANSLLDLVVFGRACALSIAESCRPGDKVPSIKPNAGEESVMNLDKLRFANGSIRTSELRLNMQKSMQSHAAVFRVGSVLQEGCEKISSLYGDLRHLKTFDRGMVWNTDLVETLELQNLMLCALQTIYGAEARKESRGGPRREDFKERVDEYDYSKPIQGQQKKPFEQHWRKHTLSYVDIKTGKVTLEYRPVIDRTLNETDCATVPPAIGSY
T1 sequence (Q3T189 29-280): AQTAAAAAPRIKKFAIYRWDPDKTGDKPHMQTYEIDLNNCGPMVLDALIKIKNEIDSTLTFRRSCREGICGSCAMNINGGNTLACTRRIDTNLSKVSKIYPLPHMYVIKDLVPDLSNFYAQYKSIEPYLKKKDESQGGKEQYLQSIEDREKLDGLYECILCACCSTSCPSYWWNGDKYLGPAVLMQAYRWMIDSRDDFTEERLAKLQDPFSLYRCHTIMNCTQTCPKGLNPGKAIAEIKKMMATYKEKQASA
T1 sequence (P35720 30-169): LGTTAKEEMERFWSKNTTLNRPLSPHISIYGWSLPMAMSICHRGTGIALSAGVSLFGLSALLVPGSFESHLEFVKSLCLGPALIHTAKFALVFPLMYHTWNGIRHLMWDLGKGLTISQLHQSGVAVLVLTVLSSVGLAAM
T1 sequence (Q95123 56-158): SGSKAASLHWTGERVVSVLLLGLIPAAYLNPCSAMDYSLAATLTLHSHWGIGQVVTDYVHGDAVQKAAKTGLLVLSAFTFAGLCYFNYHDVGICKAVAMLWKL
Briefly: Succinate:ubiquinone oxidoreductase (complex II) activity in BH‐SMP, DCPIP. The format is biochemical, bovine. The procedure:
as §1

Test [3] has as its system Leishmania tarentolae promastigotes (LtP). Briefly: Immediate mitochondrial uncoupling in LtP, OxoPlates with oligomycin. The format is cell-based. The note with it: LtP + 5 μM Oligo, OxoPlates. The procedure:
U‐shaped 96‐well OxoPlates (OP96U PreSens, Germany) with integrated fluorescence oxygen sensors were used for parallel LtP experiments. Oxygen concentrations were measured using a PerkinElmer Enspire fluorescence plate reader using excitation wavelength 540 nm and two emission wavelengths (reference dye 590 nm, IRef, and O2‐sensing dye 650 nm, IInd). The oxygen concentration (μM O2) was calculated according to manufacturer's instructions as described previously (Monzote et al., 2016). Measurements with LtP were performed in air‐saturated BHI medium. […] Immediately before the measurement, 150 μl of well‐aerated cell suspensions (13 × 10^7 LtP per ml) was added to the respective wells. Finally, on the top of each well, 50 μl of paraffin oil was layered. Two minutes after mixing, the fluorescence measurements at 27 °C were started, and eight measurements at 5‐min intervals were performed. From the linear part of the O2 decay, the slopes were calculated and corrected for the medium drift for further statistic evaluation. All measurements were performed at least in triplicate. For bioenergetic characterization, the ATP synthase inhibitor Oligo (5 μM) and as positive control CCCP (0.7–5 μM) were used. Respiratory control ratio (RCR) was calculated from respiration rate in the presence of Oligo and compounds/uncoupler divided by the rate in the presence of Oligo.

The test system of test [4] is Leishmania amazonensis promastigotes (LaP). Further details: method as in Monzote, Garcia, et al., 2014. Particulars: ref Monzote, Garcia, et al., 2014, cited from earlier work; for IC50: previous study, read-out: IC50 against LaP.
Test [5] deals with T2, cytochrome bc 1 complex purified from Saccharomyces cerevisiae (Saccharomyces cerevisiae, UniProt P00163+P07143+P08067).
T2 construct: endogenous in cells; host or cells: Native complex purified in house from yeast submitochondrial particles (Triton X-100, hydroxyapatite)
Briefly: dUQH2:cyt c3+ oxidoreductase activity of isolated ScY‐bc 1. The format is biochemical. The procedure: Cytochrome bc 1 complex was obtained from ScY‐SMP and BH‐SMP following published methodology (Geier, Schägger, Brandt, Colson, & von Jagow, 1992) with minor modifications as described below. SMP were resuspended in 1.1% Triton X‐100 and […] phenylmethylsulfonyl fluoride, pH 7.2, and centrifuged for 1 hr at 100,000 g. The bc 1 complex in the sediment was solubilized with 2.2% Triton X‐100, 600 mM NaCl, 10 mM KH2PO4, and 10 mM EDTA, pH 7.2. After centrifugation at 100,000 g for 1 hr, the supernatant was mixed with 50 ml of hydroxyapatite, equilibrated with 0.5% Triton X‐100, 250 mM NaCl, and 100 mM NaHPO4, pH 7.2. After washing the hydroxyapatite with 50 ml of equilibration buffer ([…], 100 mM NaHPO4, and 250 mM NaCl), the bc 1 complexes from ScY‐SMP and BH‐SMP (ScY‐bc 1 and BH‐bc 1, respectively) were eluted from hydroxyapatite with 250 mM KH2PO4 and 0.25% Triton X‐100, pH 7.2, and stored in liquid nitrogen.
To measure the ubiquinol:cyt c ^3+ oxidoreductase (complex III) activity, the reduction of 100 μM cyt c ^3+ at 550 nm using 540 nm as reference was monitored in the presence of the artificial substrate decylubiquinol (dUQH2, 75 μM), which was prepared from dUQ by reduction (Müllebner et al., 2010). The dUQH2:cyt c ^3+ oxidoreductase activities of 40 μg protein/ml of LtP‐Mit or 3.2 μg protein/ml of BH‐SMP were measured in 1 ml of buffer containing 250 mM sucrose, 50 mM KH2PO4, 0.2 mM EDTA (pH 7.2), 2 mM KCN, and 4 mM NaN3. Respective EO compounds were added 50 s after starting the time scan, and the reaction was started after 100 s with dUQH2 and was monitored for additional 150 s. The activity of noninhibited dUQH2:cyt c ^3+ oxidoreductase activity was measured in the presence of the vehicle for the respective inhibitor (DMSO). All inhibitor concentrations were tested in triplicate. The reduction rates for cyt c ^3+ were calculated from the time trace of the absorption difference at 550 − 540 nm (ε550–540 nm = 19 mmol^−1 L cm^−1). […] Three replicates were measured for each concentration. […]

Test [6] has as its target succinate:ubiquinone oxidoreductase (complex II), LtP‐Mit (Leishmania tarentolae, UniProt A0A640KIH4+A0A640KIH8). Briefly: Succinate:ubiquinone oxidoreductase (complex II) activity in LtP‐Mit, DCPIP. The note with it: for IC50: read-out: IC50 Complex II LtP‐Mit. It is filed as biochemical. The procedure:
as §1

Where [7] appears, read: read-out: IC50 Complex II BH‐SMP.
[8] abbreviates: immediate inhibition, five experiments, read-out: IC50 ± SD ScY‐bc 1.

Each structure is given as a SMILES string. Where two headings read alike, the source gives them in different places.

Data on 3 compounds can be found in publication PMC6208284 (Phytotherapy Research, 2018).

succinate:ubiquinone oxidoreductase (complex II), LtP‐Mit, sequence (A0A640KIH4 entry or part of it): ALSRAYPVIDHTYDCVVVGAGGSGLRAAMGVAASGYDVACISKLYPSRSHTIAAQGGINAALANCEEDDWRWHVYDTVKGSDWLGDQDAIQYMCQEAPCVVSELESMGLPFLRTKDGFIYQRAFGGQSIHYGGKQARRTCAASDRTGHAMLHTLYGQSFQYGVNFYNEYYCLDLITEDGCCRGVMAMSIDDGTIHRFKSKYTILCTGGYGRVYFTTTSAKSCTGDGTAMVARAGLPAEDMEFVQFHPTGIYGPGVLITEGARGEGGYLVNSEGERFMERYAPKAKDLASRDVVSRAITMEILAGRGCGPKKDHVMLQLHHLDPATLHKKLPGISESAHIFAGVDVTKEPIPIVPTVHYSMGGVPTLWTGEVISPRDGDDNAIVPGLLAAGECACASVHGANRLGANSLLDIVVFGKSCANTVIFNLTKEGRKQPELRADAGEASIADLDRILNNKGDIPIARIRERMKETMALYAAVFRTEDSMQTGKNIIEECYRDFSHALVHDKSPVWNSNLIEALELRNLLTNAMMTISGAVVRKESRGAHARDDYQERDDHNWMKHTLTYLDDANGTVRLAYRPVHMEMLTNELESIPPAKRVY
succinate:ubiquinone oxidoreductase (complex II), LtP‐Mit, sequence (A0A640KIH8 entry or part of it): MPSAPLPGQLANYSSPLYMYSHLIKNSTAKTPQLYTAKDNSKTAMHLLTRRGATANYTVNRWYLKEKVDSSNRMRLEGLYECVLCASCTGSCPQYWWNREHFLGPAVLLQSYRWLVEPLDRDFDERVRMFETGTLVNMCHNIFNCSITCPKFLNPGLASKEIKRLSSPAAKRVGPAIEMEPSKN

Regarding `C=C1CC[C@H]2O[C@]2(C)CC[C@@H]2[C@@H]1CC2(C)C` [Caryo, caryophyllene oxide], the “% of inhibition at highest concentration tested, Complex I BH‐SMP” value (from here on “% of inhibition … Complex I BH‐SMP”) in test [1] was 39.7%. Further, the IC50 in test [1] was > 100 µM; in test [2] (setting [7]), > 100 µM; in test [4], 22.2 ± 10.4 µM; in test [5] (setting [8]), 179 ± 1 µM; in test [6] it was > 100 µM. In test [2], the “% of inhibition at highest concentration tested, Complex II BH‐SMP” value (“% of inhibition … Complex II BH‐SMP” for short) came out at 16.3%. The “Oxygen consumption on top of the inhibition by Oligo” value in test [3] (highest concentration 200 μM) was “totally inhibited the oxygen consumption”. Further, the “% of inhibition at highest concentration tested, Complex II LtP‐Mit” value (from here on “% of inhibition … Complex II LtP‐Mit”) in test [6] is given as 12.3%.

Regarding `Cc1ccc(C(C)C)cc1O` [Car, carvacrol], the “% of inhibition … Complex I BH‐SMP” value in test [1] is 13.3%. In addition, the IC50 in test [1] was > 100 µM; in test [2] (setting [7]), > 100 µM; in test [4], 101 ± 30 µM; in test [5] (setting [8]), 941 ± 41 µM; in test [6], > 100 µM. The “% of inhibition … Complex II BH‐SMP” value in test [2] was found to be 21.5%. In test [3], the “Immediate uncoupling effect (stimulation of Oligo-inhibited oxygen consumption)” value was “Neither Car nor Asc (Figure 6a,b) showed an uncoupling effect”. For the same compound, the “% of inhibition … Complex II LtP‐Mit” value in test [6] is 8.8%.

Turning to `CC(C)C12C=CC(C)(CC1)OO2` (stereo not shown) [Asc, ascaridole], the “% of inhibition … Complex I BH‐SMP” value in test [1] amounted to 5.1%. Further, the half-inhibitory concentration (IC50) in test [1] was > 100 µM; in test [2], > 100 µM; in test [4] it was 0.6 ± 0.06 µM; in test [5], 675 ± 6 µM; in test [6], > 100 µM. In addition, the “% of inhibition … Complex II BH‐SMP” value in test [2] amounted to 21.2%. In addition, the “Immediate uncoupling effect (stimulation of Oligo-inhibited oxygen consumption)” value in test [3] was “Neither Car nor Asc (Figure 6a,b) showed an uncoupling effect”. In addition, the “IC50 values for L. amazonensis in the presence of iron chelators” value in test [4] (with iron chelators) is on record as “strongly increased”. For the same compound, the “% of inhibition … Complex II LtP‐Mit” value in test [6] is recorded as 17.6%.
